ChEMBL document CHEMBL1144001, “Synthesis and GABA(A) receptor activity of oxygen-bridged neurosteroid analogs” (Bioorg Med Chem, 2008)

assay: Displacement of [3H]TBOB from GABAA receptor in Sprague-Dawley rat cerebral cortex; format: tissue-based

Question: With CC(=O)[C@H]1CC[C@H]2[C@@H]3CC[C@@H]4C[C@H](O)C[C@@H]5O[C@H](C[C@]12C)[C@@H]3[C@]45C as the molecule, how does the IC50 read?
Answer: Its IC50 is 420 nM.

Question: For CC(=O)[C@H]1CC[C@H]2[C@@H]3CCC4=C[C@H](O)CC[C@@]45CO[C@@H](C[C@]12C)[C@@H]35, which IC50 is on record?
Answer: The IC50 was 518 nM.

Question: With CC(=O)[C@H]1CC[C@H]2[C@@H]3CC[C@H]4C[C@H](O)C[C@H]5O[C@H](C[C@]12C)[C@@H]3[C@]45C as the molecule, how does the IC50 read?
Answer: The IC50 was 741 nM.

Question: For CC(=O)[C@H]1CC[C@H]2[C@@H]3CC[C@H]4C[C@H](O)CC[C@]4(C)[C@H]3CC[C@]12C [BREXANOLONE], which IC50 is on record?
Answer: Its IC50 is 329 nM.

Question: With CC(=O)[C@H]1CC[C@H]2[C@@H]3CC[C@@H]4C[C@H](O)CC[C@]4(C)[C@H]3CC[C@]12C [ELTANOLONE] as the molecule, how does the IC50 read?
Answer: The IC50 was 830 nM.
